Experimental data taken from patent publication US5093371A, “Naphthyl ketone inhibitors of cholesterol esterase and their use as hypolipidemic and hypocaloric agents” (University of Iowa Research Foundation, priority 1990, dated 1992).

Biological target: Cholesterol esterase (CEase)
Test: Inhibition of CEase-catalyzed hydrolysis of p-nitrophenylbutyrate (PNPB)
Type: biochemical
Conditions: for Ki: 25.0±0.1 C, pH 7.3, 0.1 M sodium phosphate, 1 mM Triton X100, substrate PNPB, read-out: Ki (inhibition constants for difluoroketone inhibitors of cholesterol esterase)
Description: The CEase-catalyzed hydrolysis of the water-soluble substrate p-nitrophenylbutyrate (PNPB) is a reaction that is routinely used to characterize inhibitors. The reaction is followed at 25.0±0.1.C and pH 7.3 in 0.1 M sodium phosphate buffer that contains 0.1 N NaC1 , 1 mM Triton X100, and the appropriate concentrations of CEase and PNPB. Inhibitor characterization occurs in two stages: (a) the form of the inhibition is determined by fitting substrate timecourse data to the integrated form of the Michaelis-Menten equation by nonlinear-least squares methods: [formula] Reactions are run in the absence and presence of inhibitor. Lineweaver-Burk plots of the data are constructed, as shown in FIG. 1 for inhibition by iododifluoromethyl 2-naphthyl ketone. (b) The dissociation constant of the CEase-inhibitor complex, Ki, is determined by one of two methods. In the first (Method A), […] is calculated from a replot of the apparent Km values (determined by fitting timecourses to equation (1)) versus inhibitor concentration. The replot is described by equation 2: [formula] […] In the second approach (Method B), initial velocity (Vi) versus inhibitor concentration data are fit by nonlinear-least squares to equation 3: [formula] […] The apparent Ki is then used to calculate the actual Ki from equation 4:
Ki =Ki^app /(1+[S]/Km) (4)
In equation 4 [S] is the concentration of the substrate PNPB and Km, the Michaelis constant for CEase-catalyzed hydrolysis of PNPB, is 0.09 mM.

Row | SMILES | Ki [nM] | Km (Michaelis constant used in equation 4) [µM] | CEase inhibition (in words) (summary of Table I Ki values)
1 | O=C(c1ccc2ccccc2c1)C(F)(F)I [Compound 3, Iododifluoromethyl 2-Naphthyl Ketone] | 800 | – | –
2 | CCCC(=O)Oc1ccc([N+](=O)[O-])cc1 [PNPB, p-nitrophenylbutyrate, reference compound] | – | 90 | –
3 | COc1ccc2cc(C(=O)C(F)(F)Cl)ccc2c1 [Compound 2, Chlorodifluoromethyl 2-(6-Methoxy)naphthyl Ketone] | 6000 | – | –
4 | O=C(c1ccc2ccccc2c1)C(F)(F)Cl [Compound 1, Chlorodifluoromethyl 2-Naphthyl Ketone] | 2000 | – | –

The next lines start with the values.

Row | Ki [nM] | Km (Michaelis constant used in equation 4) [µM] | CEase inhibition (in words) (summary of Table I Ki values) | SMILES
5 | 270 | – | – | CCCCC(F)(F)C(=O)c1ccc2ccccc2c1 [Compound 4, 1,1-Difluoropentyl 2-Naphthyl Ketone]
6 | 80 | – | most potent inhibitor | CCCCCC(F)(F)C(=O)c1ccc2ccccc2c1 [Compound 6, 1,1-Difluorohexyl 2-Naphthyl Ketone]
7 | 380 | – | – | CCCCC(F)(F)C(=O)c1ccc2cc(OC)ccc2c1 [Compound 5, 1,1-Difluoropentyl 2-(6-Methoxy)naphthyl Ketone]
